What all share (type): cell-based
In one assay the test system is E. faecium. Put plainly: minimum inhibitory concentration against a panel of human pathogens. Particulars: Enterococcus faecium. The protocol: (§1) Using well established methodologies, the minimum inhibitory concentration of simvastatin was determined against a panel of human pathogens.
The subject of a further assay is Klebsiella. The description is as above. The protocol:
as §1

A further assay has as its system P. aeruginosa. The description is as above. Particulars: Pseudomonas aeruginosa. The protocol:
as §1

The subject of a further assay is S. mutans. The assay is described as above. The conditions noted are these: Streptococcus mutans. The protocol: as §1
A further assay has as its system E. faecalis. Described as above. The conditions noted are these: Enterococcus faecalis. The protocol: as §1
Another assay deals with S. aureus. The assay is described as above. The conditions noted are these: Staphylococcus aureus. The protocol: as §1
Assay [1] relates to Streptococcus mutans UA159. The experiment in a line: growth of S. mutans in planktonic culture (optical density at 600 nm, BHI medium). Particulars: rich medium, FIG. 1. The protocol: Bacterial Strain. The strain of Streptococcus mutans used in these experiments is referred to as UA159, the genomic type strain of these organisms (Murchison et al., Infect. Immun. 54(2):273-82 (1986); Ajdic et al., Proc. Natl. Acad. Sci. USA 99(22):14434-9 (2002)). Growth experiments. Two types of growth experiments were conducted: growth of the organism in planktonic culture and growth of the organism in a mono-species biofilm culture. In the planktonic culture experiments, the effects of simvastatin concentration on the growth ability of Streptococcus mutans UA159 was determined. In the second set of experiments, the effects of simvastatin concentration on the ability of S. mutans to produce extracellular polysaccharides (EPS), which is highly related to its ability to grow and survive on the surfaces of teeth (Yamashita et al., Infect. Immun 61(9):3811-7 (1993)), was determined. The planktonic experiments were conducted by growing S. mutans in Brain Heart Infusion medium (BHI) supplemented with specific concentrations of simvastatin dissolved in 1% ethanol/99% water. Simvastatin was obtained from Sigma Chemical Co. (St. Louis, Mo.). Growth was monitored as increasing optical density at 600 nm, using a BioScreen C automated-recording instrument, set at 37° C. and with shaking set at 10 seconds, every 15 minutes, to ensure suspension of the culture (Growth Curves USA, N.J.). […]

One may read the MIC as the lowest concentration that inhibits growth of the organism. The low end stands for greater potency, the high end for weaker potency.

≈ marks a conversion by molar mass, not a printed value.

In the case of `CCC(C)(C)C(=O)O[C@H]1C[C@@H](C)C=C2C=C[C@H](C)[C@H](CC[C@@H]3C[C@@H](O)CC(=O)O3)[C@H]21` [simvastatin], the minimal inhibitory concentration (MIC) against E. faecium was 64 µg/mL (≈ 153 µM); against Klebsiella, 64 µg/mL (≈ 153 µM); with P. aeruginosa it was greater than 256 µg/mL; in the assay on S. mutans it was 16 µg/mL (≈ 38.2 µM); against E. faecalis, 64 µg/mL (≈ 153 µM); against S. aureus, 64 µg/mL (≈ 153 µM). For the same molecule, the “concentration at which growth was effectively halted” value in assay [1] is no less than 64 µg/mL.

The record behind these values is patent publication US20140186271A1, “REDUCING DENTAL CARIES” (UNIVERSITY OF ROCHESTER, priority 2011, published 2014).
